Source: patent US20180057462A1, “Substituted 2-difluoromethyl-nicotin(thio)carboxanilide derivatives and their use as fungicides” (BAYER CROPSCIENCE AKTIENGESELLSCHAFT, priority 2015, published 2018)

Test: LogP by HPLC on reversed phase columns (EEC directive 79/831 Annex V.A8), method [a]
Type: physicochemical
Conditions: LC-UV, acidic range, 0.1% formic acid in water and acetonitrile as eluent (linear gradient 10% to 95% acetonitrile)

LogP[a] | Compound
3.96 | Cc1c(NC(=O)c2cccnc2C(F)F)cccc1OCc1cc(Cl)cc(Cl)c1 [Example 42]
3.69 | Cc1cnc(C(F)F)c(C(=O)Nc2cccc(OC(C)c3ccccc3)c2C(F)(F)F)c1 (centres unmarked) [Example 102]
2.86 | CCC(CC)Nc1cccc(NC(=O)c2cccnc2C(F)F)c1C [Example 106]
0.79 | Cc1c(NC(=O)c2cccnc2C(F)F)cccc1N1CCCC1 [Example 104]
3.17 | Cc1c(NC(=O)c2cccnc2C(F)F)cccc1OCC(C)C [Example 13]
3.29 | Cc1c(NC(=O)c2cccnc2C(F)F)cccc1OCCc1cccc(F)c1 [Example 61]
3.79 | Cc1c(NC(=O)c2cccnc2C(F)F)cccc1OC(C)c1ccccc1Cl (centres unmarked) [Example 50]
3.61 | Cc1c(NC(=O)c2cccnc2C(F)F)cccc1OC(C)(C)C(C)C [Example 117]
3.09 | Cc1c(NC(=O)c2cccnc2C(F)F)cccc1OCc1cccc(F)c1 [Example 40]
3.06 | Cc1c(NC(=O)c2cccnc2C(F)F)cccc1OCc1ccc(F)cc1 [Example 36]
2.82 | Cc1c(NC(=O)c2cccnc2C(F)F)cccc1OCc1cccs1 [Example 71]
2.17 | Cc1c(NC(=O)c2cccnc2C(F)F)cccc1-c1cnn(C(C)C)c1 [Example 113]
3.85 | Cc1c(NC(=O)c2cccnc2C(F)F)cccc1OC(C)Cc1cccc(Cl)c1 (centres unmarked) [Example 68]
3.68 | Cc1c(NC(=O)c2cccnc2C(F)F)cccc1OCCc1cccc(C(F)(F)F)c1 [Example 60]
3.19 | Cc1ccc(-c2cccc(NC(=O)c3cccnc3C(F)F)c2C)s1 [Example 111]
3.65 | Cc1c(NC(=O)c2cccnc2C(F)F)cccc1OC(C)c1ccc(Cl)cc1 (centres unmarked) [Example 47]
3.44 | CCC(C)Oc1cccc(NC(=O)c2cc(C)cnc2C(F)F)c1C(F)(F)F (centres unmarked) [Example 95]
3.52 | Cc1c(NC(=O)c2cccnc2C(F)F)cccc1OCc1cccc(Br)c1 [Example 54]
3.31 | Cc1c(NC(=O)c2cccnc2C(F)F)cccc1OCCc1ccccc1F [Example 62]
3.12 | O=C(Nc1cccc(-c2ccc(F)cc2F)c1Cl)c1cccnc1C(F)F [Example 10]
2.99 | O=C(Nc1cccc(-c2ccccc2F)c1Cl)c1cccnc1C(F)F [Example 4]

LogP[a] | Compound
3.57 | Cc1c(NC(=O)c2cccnc2C(F)F)cccc1OCc1ccc(C(F)(F)F)cc1 [Example 73]
3.87 | Cc1c(NC(=O)c2cccnc2C(F)F)cccc1OC(C)c1ccccc1C(F)(F)F (centres unmarked) [Example 55]
3.42 | CC(Oc1cccc(NC(=O)c2cccnc2C(F)F)c1C(F)(F)F)c1ccccc1 (centres unmarked) [Example 101]
4.14 | Cc1c(NC(=O)c2cccnc2C(F)F)cccc1OCC1CCCCC1 [Example 77]
2.43 | Cc1c(COC(C)C)cccc1NC(=O)c1cccnc1C(F)F [Example 90]
3.55 | Cc1c(NC(=O)c2cccnc2C(F)F)cccc1OC(C)COCC(C)C (centres unmarked) [Example 23]
3.68 | Cc1cccc(OCC(C)Oc2cccc(NC(=O)c3cccnc3C(F)F)c2C)c1 (centres unmarked) [Example 33]
2.43 | Cc1c(NC(=O)c2cccnc2C(F)F)cccc1C1CC1 [Example 122]
3.74 | Cc1c(NC(=O)c2cccnc2C(F)F)cccc1OCCc1ccccc1C(F)(F)F [Example 59]
3.49 | O=C(Nc1cccc(-c2cccc(Cl)c2)c1Cl)c1cccnc1C(F)F [Example 8]
4.21 | Cc1c(NC(=O)c2cccnc2C(F)F)cccc1OC(C)CC(C)(C)C (centres unmarked) [Example 84]
3.52 | Cc1c(NC(=O)c2cccnc2C(F)F)cccc1OC1CCCCC1 [Example 16]
2.02 | Cc1c(NC(=O)c2cccnc2C(F)F)cccc1C1CCCO1 (centres unmarked) [Example 82]
3.12 | O=C(Nc1cccc(-c2cccc(F)c2)c1Cl)c1cccnc1C(F)F [Example 5]
3.83 | Cc1c(NC(=O)c2cccnc2C(F)F)cccc1OCc1cccc(Cl)c1Cl [Example 45]
3.68 | Cc1ccc(OCC(C)Oc2cccc(NC(=O)c3cccnc3C(F)F)c2C)cc1 (centres unmarked) [Example 31]
3.46 | CC(C)Oc1cccc(NC(=O)c2ccc(Cl)nc2C(F)F)c1C(F)(F)F [Example 97]
3.76 | Cc1c(NC(=O)c2cccnc2C(F)F)cccc1OC(C)COc1cccc(Cl)c1 (centres unmarked) [Example 34]
3.29 | Cc1c(NC(=O)c2cccnc2C(F)F)cccc1OCCc1ccc(F)cc1 [Example 63]
3.55 | CCC(CC)Oc1cccc(NC(=O)c2cccnc2C(F)F)c1C(F)(F)F [Example 92]
4.01 | Cc1c(NC(=O)c2cccnc2C(F)F)cccc1OC(C)c1ccc(Cl)c(Cl)c1 (centres unmarked) [Example 48]

LogP[a] | Compound
2.47 | C#CCOCC(C)Oc1cccc(NC(=O)c2cccnc2C(F)F)c1C (centres unmarked) [Example 21]
3.13 | O=C(Nc1cccc(OCc2ccccc2)c1C(F)(F)F)c1cccnc1C(F)F [Example 100]
3.72 | Cc1c(NC(=O)c2cccnc2C(F)F)cccc1OCCc1ccc(C(F)(F)F)cc1 [Example 58]
3.17 | CCC(C)Oc1cccc(NC(=O)c2cccnc2C(F)F)c1C(F)(F)F (centres unmarked) [Example 94]
3.04 | Cc1cnc(C(F)F)c(C(=O)Nc2cccc(OC(C)C)c2C(F)(F)F)c1 [Example 98]
3.92 | Cc1c(CCC2CC2(Cl)Cl)cccc1NC(=O)c1c(C(F)F)ccnc1C(F)F (centres unmarked) [Example 1]
4.06 | Cc1c(NC(=O)c2cccnc2C(F)F)cccc1OC(C)C1CCCC1 (centres unmarked) [Example 85]
3.85 | Cc1c(NC(=O)c2cccnc2C(F)F)cccc1OCCC(C)(C)C [Example 78]
3.06 | Cc1c(NC(=O)c2cccnc2C(F)F)cccc1OCc1ccccc1F [Example 41]
3.92 | CCCC(CC)Oc1cccc(NC(=O)c2cccnc2C(F)F)c1C(F)(F)F (centres unmarked) [Example 93]
2.17 | Cc1c(NC(=O)c2cccnc2C(F)F)cccc1NC1CCCC1 [Example 107]
3.25 | Cc1c(NC(=O)c2cccnc2C(F)F)cccc1C1CCCC1 [Example 121]
3.37 | Cc1c(NC(=O)c2cccnc2C(F)F)cccc1OC(C)c1ccccc1F (centres unmarked) [Example 57]
3.33 | Cc1c(NC(=O)c2cccnc2C(F)F)cccc1OC(C)COc1ccccc1 (centres unmarked) [Example 30]
1.39 | Cc1c(NC(=O)c2cccnc2C(F)F)cccc1N(C)C1CCCC1 [Example 109]
3.33 | O=C(Nc1cccc(OC2CCCC2)c1C(F)(F)F)c1cccnc1C(F)F [Example 91]
4.31 | Cc1c(NC(=O)c2cccnc2C(F)F)cccc1C1CCCCC1(C)C (centres unmarked) [Example 116]
3.70 | Cc1c(NC(=O)c2cccnc2C(F)F)cccc1OC(C)c1cccc(C(F)(F)F)c1 (centres unmarked) [Example 53]
3.55 | Cc1c(NC(=O)c2cccnc2C(F)F)cccc1OCc1ccccc1C(F)(F)F [Example 39]
3.94 | CCCC(CC)Oc1cccc(NC(=O)c2cccnc2C(F)F)c1C (centres unmarked) [Example 83]
4.03 | CC(Oc1cccc(NC(=O)c2ccc(Cl)nc2C(F)F)c1C(F)(F)F)c1ccccc1 (centres unmarked) [Example 103]

LogP[a] | Compound
3.33 | Cc1c(NC(=O)c2cccnc2C(F)F)cccc1OC(C)c1ccccc1 (centres unmarked) [Example 89]
3.12 | O=C(Nc1cccc(-c2ccc(F)cc2)c1Cl)c1cccnc1C(F)F [Example 6]
3.85 | Cc1c(NC(=O)c2cccnc2C(F)F)cccc1OCc1cc(Cl)ccc1Cl [Example 43]
4.15 | Cc1c(NC(=O)c2cccnc2C(F)F)cccc1OC(C)c1cc(Cl)ccc1Cl (centres unmarked) [Example 56]
3.17 | Cc1c(NC(=O)c2cccnc2C(F)F)cccc1OCCC1CC1 [Example 26]
3.65 | Cc1c(NC(=O)c2cccnc2C(F)F)cccc1OC(C)CSc1ccccc1 (centres unmarked) [Example 70]
3.83 | CCC(C)Oc1cccc(NC(=O)c2ccc(Cl)nc2C(F)F)c1C(F)(F)F (centres unmarked) [Example 96]
3.37 | Cc1c(NC(=O)c2cccnc2C(F)F)cccc1OC(C)Cc1cccs1 (centres unmarked) [Example 72]
3.05 | O=C(Nc1cccc(-c2ccccc2)c1Cl)c1cccnc1C(F)F [Example 3]
3.90 | Cc1c(NC(=O)c2cccnc2C(F)F)cccc1OC(C)Cc1ccccc1Cl (centres unmarked) [Example 69]
2.82 | CCO/N=C\C(C)Oc1cccc(NC(=O)c2cccnc2C(F)F)c1C (centres unmarked) [Example 29]
3.29 | Cc1c(NC(=O)c2cccnc2C(F)F)cccc1OC(C)c1ccc(F)cc1 (centres unmarked) [Example 49]
2.68 | Cc1c(NC(=O)c2cccnc2C(F)F)cccc1OCCC(F)(F)F [Example 120]
3.31 | Cc1c(NC(=O)c2cccnc2C(F)F)cccc1OC(C)COC(C)(C)C (centres unmarked) [Example 24]
3.23 | Cc1c(NC(=O)c2cccnc2C(F)F)cccc1OCc1ncc(C(F)(F)F)cc1Cl [Example 17]
2.26 | Cc1c(NC(=O)c2cccnc2C(F)F)cccc1OC(C)C1CCOC1 (centres unmarked) [Example 27]
4.26 | Cc1c(NC(=O)c2cccnc2C(F)F)cccc1OC(C)CCC(C)C (centres unmarked) [Example 87]
3.48 | Cc1c(NC(=O)c2cccnc2C(F)F)cccc1Oc1ncc(C(F)(F)F)cc1Cl [Example 18]
2.49 | CO/N=C\C(C)Oc1cccc(NC(=O)c2cccnc2C(F)F)c1C (centres unmarked) [Example 28]
3.70 | Cc1c(NC(=O)c2c(C(F)F)ccnc2C(F)F)cccc1OC1CCCC1 [Example 123]
3.94 | CCCCC(C)Oc1cccc(NC(=O)c2cccnc2C(F)F)c1C (centres unmarked) [Example 86]

Compound | LogP[a]
Cc1c(NC(=O)c2cccnc2C(F)F)cccc1OC(C)Cc1ccccc1 (centres unmarked) [Example 88] | 3.62

Same assay, conditions: reversed phase HPLC column; LC-UV, acidic range, 0.1% formic acid in water and acetonitrile as eluent (linear gradient 10% to 95% acetonitrile)

chromatographic logP | Compound
2.6 | Cc1c(NC(=O)c2cccnc2C(F)F)cccc1-c1cncc(C(F)(F)F)c1 [Example 110, 2-(difluoromethyl)-N-{2-methyl-3-[5-(trifluoromethyl)pyridin-3-yl]phenyl}nicotinamide]
